Key:
ERbeta protein = target: T1, ERbeta protein (Homo sapiens, UniProt Q92731); assay: ER beta FP binding assay; conditions: 6 nM ERbeta protein, 1.5 nM ER FP ligand (Fluormone EL Red), 3 hours at room temperature; read-out: pIC50 in the ER beta FP binding assay (converted)
T1 construct: […]; His6 (leader […]) (N)
Protocol: (§1) Assay Buffer (AB) (50 mM MOPES pH 7.5, 50 mM NaF, 2.5 mM CHAPs), in deionized water, 5 mM 1,4 dithiothreitol (DTT) added on day of the experiment. The appropriate amount of AB was placed in a plastic tube, adding solid DTT before the assay was run. AB with DTT was distributed to plastic tubes. We have found use of plastic to be important vs glass. A final concentration of 6 nM ERbeta protein was added to the tube followed by gentle inversion. A final concentration of 1.5 nM ER FP ligand (Fluormone™ EL Red 200 nM in 20 mM Tris, 90% Methanol purchased from Invitrogen catalogue no P3030) was added to the same tube followed by gentle inversion. This was allowed to sit for 5-10 minutes before adding it to the 384 assay plate. Similar protocol was used for ERalpha with a final concentration of 4 nM ERalpha and 1.5 nM ER FP ligand.
(§2) 384 plates containing test compounds dissolved in 100% DMSO at 1 mM were serially diluted (1:3) by a Beckman FX. Serial diluted test compounds were added, […], to the assay plates with a maximum final concentration of 10 uM. Once the assay plates were ready, 10 uL of the above reagents were added to the appropriate set of plates with the Thermo combi. These plates were then sealed and place at room temperature for 3 hours.
The plates were then placed on the Molecular Devices Analyst and counted (excitation 535 nm, emission 590 nm with a 561 Dichroic mirror). Data was normalized to control then fitted to a non-linear least squares algorithm (see below).
pIC50 Calculation y=a+((b−a)/(1+(10^x/10^c)^d) Results
The amino acid sequence of human ER beta used in this assay is […]

ERalpha = target: T2, ERalpha (Homo sapiens, UniProt P03372); assay: ER alpha FP binding assay; conditions: ER beta versus ER alpha, FP binding assays
T2 construct: […]; His6 (leader […]G) (N)
T2 sequence (P03372 with tags, fused parts or gaps): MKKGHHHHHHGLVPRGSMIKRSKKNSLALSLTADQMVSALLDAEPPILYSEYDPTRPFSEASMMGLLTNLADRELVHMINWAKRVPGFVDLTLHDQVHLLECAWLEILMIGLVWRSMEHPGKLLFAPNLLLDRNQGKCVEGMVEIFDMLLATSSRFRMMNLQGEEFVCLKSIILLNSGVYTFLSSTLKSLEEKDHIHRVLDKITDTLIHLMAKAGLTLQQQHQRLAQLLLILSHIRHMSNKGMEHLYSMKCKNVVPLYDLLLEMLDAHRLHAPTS
Protocol: as §1, §2
The plates were then placed on the Molecular Devices Analyst and counted (excitation 535 nm, emission 590 nm with a 561 Dichroic mirror). […]

T1 sequence (Q92731 with tags, fused parts or gaps): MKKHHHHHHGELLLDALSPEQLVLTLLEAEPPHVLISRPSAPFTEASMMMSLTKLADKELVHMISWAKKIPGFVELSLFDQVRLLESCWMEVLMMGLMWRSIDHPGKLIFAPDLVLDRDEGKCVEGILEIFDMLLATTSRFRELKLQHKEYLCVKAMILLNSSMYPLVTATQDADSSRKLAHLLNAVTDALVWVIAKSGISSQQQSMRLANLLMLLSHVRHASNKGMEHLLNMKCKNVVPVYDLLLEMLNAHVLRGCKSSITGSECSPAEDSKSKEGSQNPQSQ

| SMILES | IC50 (ERbeta protein) | selectivity versus ER alpha (ERalpha) |
| --- | --- | --- |
| Oc1ccc(-n2ncc3c(O)cccc32)cc1F [Example 1, 1-(3-Fluoro-4-hydroxyphenyl)-1H-indazol-4-ol] | < 100 nM | > 10 fold |
| Oc1ccc(-n2ncc3c(O)c(F)ccc32)cc1F [Example 10, 5-Fluoro-1-(3-fluoro-4-hydroxyphenyl)-1H-indazol-4-ol] | < 100 nM | – |
| Oc1ccc(-n2ncc3c(O)c(Br)ccc32)cc1F [Example 11, 5-Bromo-1-(3-fluoro-4-hydroxyphenyl)-1H-indazol-4-ol] | < 100 nM | – |
| Oc1ccc(-n2ncc3c(O)ccc(F)c32)cc1F [Example 13, 7-Fluoro-1-(3-fluoro-4-hydroxyphenyl)-1H-indazol-4-ol] | < 100 nM | – |
| Oc1ccc(-n2ncc3c(O)ccc(Cl)c32)cc1F [Example 14, 7-Chloro-1-(3-fluoro-4-hydroxyphenyl)-1H-indazol-4-ol] | < 100 nM | – |
| Oc1ccc(-n2ncc3c(O)cccc32)cc1Cl [Example 17, 1-(3-Chloro-4-hydroxyphenyl)-1H-indazol-4-ol] | < 100 nM | – |

Now from value to molecule, other results behind:

| IC50 (ERbeta protein) | SMILES | selectivity versus ER alpha (ERalpha) |
| --- | --- | --- |
| < 100 nM | N#Cc1cc(O)c2cnn(-c3ccc(O)c(F)c3)c2c1 [Example 3, 1-(3-Fluoro-4-hydroxyphenyl)-4-hydroxy-1H-indazole-6-carbonitrile] | – |
| < 100 nM | Oc1ccc(-n2ncc3c(O)cc(F)cc32)cc1F [Example 4, 6-Fluoro-1-(3-fluoro-4-hydroxyphenyl)-1H-indazol-4-ol] | – |
| < 100 nM | Oc1ccc(-n2ncc3c(O)cc(Br)cc32)cc1F [Example 5, 6-Bromo-1-(3-fluoro-4-hydroxyphenyl)-1H-indazol-4-ol] | – |
| < 100 nM | C=Cc1cc(O)c2cnn(-c3ccc(O)c(F)c3)c2c1 [Example 6, 6-Ethenyl-1-(3-fluoro-4-hydroxyphenyl)-1H-indazol-4-ol] | – |
| < 100 nM | CCc1cc(O)c2cnn(-c3ccc(O)c(F)c3)c2c1 [Example 7, 6-Ethyl-1-(3-fluoro-4-hydroxyphenyl)-1H-indazol-4-ol] | – |
| < 100 nM | Oc1ccc(-n2ncc3c(O)cc(Cl)cc32)cc1F [Example 8, 6-Chloro-1-(3-fluoro-4-hydroxyphenyl)-1H-indazol-4-ol] | – |
| < 100 nM | Cc1cc(O)c2cnn(-c3ccc(O)c(F)c3)c2c1 [Example 9, 1-(3-Fluoro-4-hydroxyphenyl)-6-methyl-1H-indazol-4-ol] | – |

Reference: patent US7960563B2, “Indazoles used to treat estrogen receptor beta mediated disorders” (Glaxo Group Limited, priority 2007, dated 2011)
